Values quoted from earlier work, collected in patent publication US20100331419A1, “Combination Therapies for the Treatment of Obesity” (priority 2009, published 2010).

Settings: literature studies of weight loss medications

Structure (SMILES) | weight loss of body weight for drug compared with placebo
CCN[C@@H](C)Cc1cccc(C(F)(F)F)c1 [dexfenfluramine] | about 5%
CCCCCCCCCCC[C@@H](C[C@@H]1OC(=O)[C@H]1CCCCCC)OC(=O)[C@H](CC(C)C)NC=O [orlistat] | about 5%
CC(C)CC(N(C)C)C1(c2ccc(Cl)cc2)CCC1 (stereo not drawn) [sibutramine] | about 5%
